System: patients with ischemic strokes
Experiment: Phase 2 clinical study of spray in patients with ischemic strokes
Assay type: in vivo, human
Settings: for LCCA (far-wall): Maximal IMT of left common carotid artery / LCCA (near-wall): Maximal IMT of left common carotid artery / LICA (far-wall): Maximal IMT of left internal carotid artery / LICA (near-wall): Maximal IMT of left internal carotid artery / RCCA (far-wall): Maximal IMT of right common carotid artery / RCCA (near-wall): Maximal IMT of right common carotid artery / RICA (far-wall): Maximal IMT of right internal carotid artery / RICA (near-wall): Maximal IMT of right internal carotid artery: ultrasonography
Description: Each patient enrolled in Group A was administered the investigational drug in a double-blind manner for 16 weeks starting between 3 and 60 days after the onset of stroke symptoms (Day 1 of the study). The patients and/or their caregivers were instructed how to apply the investigational drug accurately so that patients or their caregivers would administer 20 sprays/dose of either the investigational drug or placebo twice daily (approximately every 12 hours) for a total daily dose of 280 mg of investigational drug. The 20 sprays of investigational drug were administered as follows: 4 sprays around the neck, 2 sprays to the left shoulder, 2 sprays to the right shoulder, 6 sprays to the chest, 3 sprays to the left leg, and 3 sprays to the right leg. Each spray was sprayed on a different area of the skin to reach maximum absorption. The patient would wait for at least 5 minutes to dress after the last spray so that the skin became completely dry.
Patients were asked to return to the study site at Weeks 4, 8, 12, and 16 for efficacy and safety assessments. After the Week 16 assessments had been performed, patients would start the open-label period of the study the next day and receive active treatment in an open-label manner through the end of the study (EOS) at Week 32. That is, patients who were receiving active treatment would continue to receive active treatment, and patients who were receiving placebo would switch to active treatment for the remaining 16 weeks of the study. Patients would receive only 1 dose of investigational drug on the Week 16 visit day. Patients would return to the study site at Week 24 and Week 32 (EOS) for efficacy and safety assessments. An Early Termination visit would occur if the patient was discontinued from the study prematurely. Patients would have a follow-up visit approximately 14 days after the Early Termination visit or the Week 32 (EOS) visit.
The spray bottle deposits […] of spray solution and 7 mg 2-(diethylamino)ethyl acetoxybenzoate free base per spray on the skin. Subjects were to apply each spray to a different skin area around the neck, chest, legs and arms based on the randomized dose level assigned.
The treatment was administered twice daily (approximately every 12 hours) starting on Day 1 of the study through the Week 16 visit. Each spray was sprayed on a different area of the skin to reach maximum absorption.
Group A administered the 20 sprays of investigational drug as follows: 4 sprays around the neck, 2 sprays to the left shoulder, 2 sprays to the right shoulder, 6 sprays to the chest, 3 sprays to the left leg, and 3 sprays to the right leg twice daily for a total of 40 sprays (280 mg)/day. Each spray was sprayed on a different area of the skin to reach maximum absorption.
(§1) Group B administered the investigational drug as follows: 2 sprays to the front of the neck, 1 spray to the left side of the neck, 1 spray to the right side of the neck, 6 sprays to the chest close to the neck twice daily for a total of 20 sprays (140 mg)/day. Each spray was sprayed on a different area of the skin to reach maximum absorption.
as §1, with “C” for “B”, “1 spray” for “2 sprays”, “2” for “6”, “chest” for “chest close to the neck”, “10” for “20”, “(70 mg/day).” for “(140 mg)/day.”
The primary efficacy endpoint is the mRS score at Week 16 dichotomized as ‘success’ (0 to 2) or failure (>2) for all randomized patients at Week 16.
The mRS score was assessed at screening; Day 1 (baseline); Weeks 4, 8, 12, 16, 24, and 32; Early Termination Visit (if applicable) and Follow-Up Visit.
The mRS score measures the patient's functional level of activity and is dichotomized as a favorable outcome (score=0-2) versus unfavorable (score […]). […]

[1] = 5 Sprays (35 mg/dose bid), Baseline
[2] = 5 Sprays (35 mg/dose bid), Week 4
[3] = 5 Sprays (35 mg/dose bid), Week 8
[4] = 5 Sprays (35 mg/dose bid), Week 16
[5] = 5 Sprays (35 mg/dose bid), Week 24
[6] = 5 Sprays (35 mg/dose bid), Week 32
[7] = 5 Sprays (35 mg/dose bid), baseline
[8] = 10 Sprays (70 mg/dose bid), Baseline
[9] = 10 Sprays (70 mg/dose bid), Week 4
[10] = 10 Sprays (70 mg/dose bid), Week 8
[11] = 10 Sprays (70 mg/dose bid), Week 16

CCN(CC)CCOC(=O)c1ccccc1OC(C)=O.Cl [Compound-1]
safety and tolerability (35 mg, 70 mg, and 140 mg BID, topical spray): safe and were generally well tolerated
LCCA (far-wall): Maximal IMT of left common carotid artery [1]: 6.2 ± 1.6 mm
LCCA (near-wall): Maximal IMT of left common carotid artery [1]: 7.3 ± 2.0 mm
LICA (far-wall): Maximal IMT of left internal carotid artery [1]: 5.3 ± 1.3 mm
LICA (near-wall): Maximal IMT of left internal carotid artery [1]: 6.3 ± 2.1 mm
RCCA (far-wall): Maximal IMT of right common carotid artery [1]: 7.1 ± 2.2 mm
RCCA (near-wall): Maximal IMT of right common carotid artery [1]: 6.9 ± 2.1 mm
RICA (far-wall): Maximal IMT of right internal carotid artery [1]: 4.1 ± 1.4 mm
RICA (near-wall): Maximal IMT of right internal carotid artery [1]: 4.7 ± 1.5 mm
Modified Rankin Scale Score (mRS) [2]: 3.1 ± 0.5
National Institute of Health Stroke Scale [2]: 5.5 ± 1.7
Modified Rankin Scale Score (mRS) [3]: 2.9 ± 0.3
National Institute of Health Stroke Scale [3]: 5.3 ± 1.5
Modified Rankin Scale Score (mRS) [4]: 2.7 ± 0.5
National Institute of Health Stroke Scale [4]: 4.1 ± 1.0
LCCA (far-wall): Maximal IMT of left common carotid artery [4]: 2.7 ± 1.4 mm
LCCA (near-wall): Maximal IMT of left common carotid artery [4]: 2.3 ± 1.3 mm
LICA (far-wall): Maximal IMT of left internal carotid artery [4]: 1.5 ± 1.1 mm
LICA (near-wall): Maximal IMT of left internal carotid artery [4]: 1.6 ± 1.3 mm
RCCA (far-wall): Maximal IMT of right common carotid artery [4]: 2.5 ± 1.1 mm
RCCA (near-wall): Maximal IMT of right common carotid artery [4]: 2.1 ± 0.9 mm
RICA (far-wall): Maximal IMT of right internal carotid artery [4]: 1.6 ± 0.9 mm
RICA (near-wall): Maximal IMT of right internal carotid artery [4]: 1.5 ± 1.2 mm
Modified Rankin Scale Score (mRS) [5]: 2.5 ± 0.5
National Institute of Health Stroke Scale [5]: 3.4 ± 0.8
Modified Rankin Scale Score (mRS) [6]: 2.4 ± 0.5
National Institute of Health Stroke Scale [6]: 2.9 ± 0.6
LCCA (far-wall): Maximal IMT of left common carotid artery [6]: 2.5 ± 0.7 mm
LCCA (near-wall): Maximal IMT of left common carotid artery [6]: 2.1 ± 0.7 mm
LICA (far-wall): Maximal IMT of left internal carotid artery [6]: 1.3 ± 0.7 mm
LICA (near-wall): Maximal IMT of left internal carotid artery [6]: 1.2 ± 1.0 mm
RCCA (far-wall): Maximal IMT of right common carotid artery [6]: 2.6 ± 0.9 mm
RCCA (near-wall): Maximal IMT of right common carotid artery [6]: 2.3 ± 0.8 mm
RICA (far-wall): Maximal IMT of right internal carotid artery [6]: 1.1 ± 0.7 mm
RICA (near-wall): Maximal IMT of right internal carotid artery [6]: 1.2 ± 0.6 mm
Modified Rankin Scale Score (mRS) [7]: 3.5 ± 0.5
National Institute of Health Stroke Scale [7]: 6.0 ± 2.2
LCCA (far-wall): Maximal IMT of left common carotid artery [8]: 7.1 ± 1.7 mm
LCCA (near-wall): Maximal IMT of left common carotid artery [8]: 7.0 ± 1.5 mm
LICA (far-wall): Maximal IMT of left internal carotid artery [8]: 5.8 ± 1.5 mm
LICA (near-wall): Maximal IMT of left internal carotid artery [8]: 6.1 ± 1.3 mm
RCCA (far-wall): Maximal IMT of right common carotid artery [8]: 7.9 ± 2.1 mm
RCCA (near-wall): Maximal IMT of right common carotid artery [8]: 7.2 ± 1.7 mm
RICA (far-wall): Maximal IMT of right internal carotid artery [8]: 4.3 ± 1.5 mm
RICA (near-wall): Maximal IMT of right internal carotid artery [8]: 5.1 ± 1.2 mm
Modified Rankin Scale Score (mRS) [9]: 2.5 ± 0.5
National Institute of Health Stroke Scale [9]: 4.9 ± 1.5
Modified Rankin Scale Score (mRS) [10]: 2.0 ± 0.5
National Institute of Health Stroke Scale [10]: 3.7 ± 1.1
Modified Rankin Scale Score (mRS) [11]: 1.6 ± 0.5
National Institute of Health Stroke Scale [11]: 2.3 ± 0.8
LCCA (far-wall): Maximal IMT of left common carotid artery [11]: 1.8 ± 0.7 mm
LCCA (near-wall): Maximal IMT of left common carotid artery [11]: 1.3 ± 0.7 mm
LICA (far-wall): Maximal IMT of left internal carotid artery [11]: 0.7 ± 0.3 mm
LICA (near-wall): Maximal IMT of left internal carotid artery [11]: 0.9 ± 0.5 mm
RCCA (far-wall): Maximal IMT of right common carotid artery [11]: 1.5 ± 0.6 mm
RCCA (near-wall): Maximal IMT of right common carotid artery [11]: 1.6 ± 0.8 mm
RICA (far-wall): Maximal IMT of right internal carotid artery [11]: 0.8 ± 0.3 mm
